The target of assay [1] is FKBP12F36V (Homo sapiens, UniProt P62942, F37V). The note with it: cited from earlier work.
For assay [2], the system named is endogenous FKBPs. The note with it: cited from earlier work.
In assay [3] the test system is DAZL-iCasp9 targeted PGCs. As to the kind of experiment: Ablation of injected DAZL-iCasp9 targeted PGCs in embryos treated with B/B. The note with it: stage HH 16 embryos, 25 nM B/B, gonads viewed at 8 days; FIG. 7. The class given is in vivo, chicken. As for the experimental part:
Stage HH 16 embryos were injected with 3500 PGCs transfected with CRISPR reagents to insert an inducible caspase gene and GFP at the dazl locus, and 3500 PGCs transfected with a transposon to insert a cassette for TdTomato expression randomly in the genome. After injection, embryos were dosed with 50 μl of 1× Pen/Strep with or without 25 nM of the dimeriser drug B/B. At 8 days of development, gonads were dissected and viewed under fluorescence. Images are representative of three independent injections for each treatment.
PGCs containing the targeted icaspase9 gene were treated with the B/B dimerization compound. […] These cells were mixed with control red fluorescent PGCs and injected into chicken embryos. The chicken embryos were treated with the B/B dimerization compound.

In assay [4] the test system is endogenous (host) germ cells. Put plainly: Host germ cell ablation and donor PGC colonisation in Dazl-aviCaspase9 G2 embryos with B/B. Format: in vivo, chicken. Conditions: Dazl-aviCaspase9 G2 embryos injected with donor TdTomato PGCs and B/B, examined at day 10; FIG. 12. The procedure:
FIG. 12 B/B drug treatment of aviCaspase9 transgenic embryos ablates host germ cells and permits transplanted donor cells to populate the host gonad. Stage HH 16 embryos containing the aviCaspase9 transgene targeted to the DAZL locus, were injected with 200 donor PGCs transfected with a transposon to insert a cassette for TdTomato expression randomly in the genome. Injected cells were in 1 μl of solution containing 0.5 mM (final concentration) B/B dimerization drug. After injection, eggs were dosed with 50 μl of 1× Pen/Strep containing 15 μM (final concentration) B/B dimeriser drug and incubated for 8 days. At 10 days of development, gonads were dissected and viewed under fluorescence.
The G1 Dazl-icaspase9 and Dazl-aviCaspase9 chickens were raised to sexual maturity and mated with wildtype chickens. Fertile eggs from the matings (G2 embryos) were incubated and examined for GFP expression in the gonads. The germ cells in the gonads of both Dazl-icaspase9 and Dazl-avicaspase9 G2 embryos contained GFP+ cells in the gonad (FIG. 9). […] The G2 embryos were tested for germ cell ablation. 1.0 μl of 0.1 mM B/B dimerization reagent (Takara Bio, Inc) was injected into the bloodstream of day 2.5 (stage 16 Hamilton & Hamburger (HH)) chicken embryos. The embryos were incubated for 8 days, PCR-screened to identify iCaspase9 embryos and examined for GFP expression in the gonads. […]

Assay [5] deals with PGCs containing the targeted icaspase9 gene. As to the kind of experiment: PGC culture with dimerization molecule B/B, total cell number after 10 days. Format: cell-based, chicken. As for the experimental part: FIG. 6 500 PGCs (dazl-GFP, dazl-human-Caspase or dazl-chicken-Caspase) were cultured in the presence or absence of the dimerization molecule B/B. After 10 days the total cell number was counted for each well. N=6 for each data point, from three independent experiments.
FIG. 22 500 PGCs (dazl-GFP, dazl-iCaspase, dazl-aviCaspase, ddx4-iCaspase9) were cultured in the presence or absence of the dimerization molecule B/B. After 10 days the total cell number was counted for each well. N=2 for each data point.
PGCs containing the targeted icaspase9 gene were treated with the B/B dimerization compound. […] These cells were mixed with control red fluorescent PGCs and injected into chicken embryos. The chicken embryos were treated with the B/B dimerization compound. Only red PGCs and control GFP PGCs were visible in the embryos. Dazl icaspase9 PGCs were killed (FIG. 7).
The iCaspase9 trasgene was targeted to either the DDX4 or the DAZL locus in PGCs and the cells were then exposed to the dimerisation drug. Cells containing the transgene inserted at the DAZL locus were determined to be inhibited/killed. Without wishing to be bound by theory, the inventors consider the expression levels at embryonic stages are important for ablating germ cells.

The test system of assay [6] is germ cells. Put plainly: Germ cell ablation in G2 Dazl-iCaspase9 and Dazl-aviCaspase9 embryos after B/B injection. Format: in vivo, chicken. The note with it: FIG. 11. The procedure: B/B was injected into the dorsal aorta of stage 16 chicken embryos (day 2.5). Embryos were incubated and examined at day 10 for GFP fluorescence and DDX4 expression. Left panels; GFP fluorescence in B/B injected iCaspase9 and aviCaspase9 embryos. Right panels: immunofluorescence for DDX4 protein (red).
The G1 Dazl-icaspase9 and Dazl-aviCaspase9 chickens were raised to sexual maturity and mated with wildtype chickens. Fertile eggs from the matings (G2 embryos) were incubated and examined for GFP expression in the gonads. The germ cells in the gonads of both Dazl-icaspase9 and Dazl-avicaspase9 G2 embryos contained GFP+ cells in the gonad (FIG. 9). […] The G2 embryos were tested for germ cell ablation. 1.0 μl of 0.1 mM B/B dimerization reagent (Takara Bio, Inc) was injected into the bloodstream of day 2.5 (stage 16 Hamilton & Hamburger (HH)) chicken embryos. The embryos were incubated for 8 days, PCR-screened to identify iCaspase9 embryos and examined for GFP expression in the gonads. […] Embryos were incubated for 8 days and examined for florescence and germ cells. […] (FIG. 12).

Assay [7] deals with host germ cells. As to the kind of experiment: Offspring from Dazl-Caspase9 hosts injected with Silkie donor PGCs and B/B. Format: in vivo, chicken. The note with it: Dazl-Caspase9 hosts injected with black skinned Silkie PGCs; FIG. 23. The procedure:
FIG. 23 illustrates the use of caspase9 host ablation using black skinned silkie chicken donor PGCs injected into the iCaspase9 surrogate host embyros which are hatched and bred to produce pure offspring. […] (A-C) The offspring (embryos and chicks) have black skins indicating they came from the donor germ cells.
Utilising caspase 9 expression targeted to the DAZL locus in PGCs, host germ cell ablation and producing offspring from a donor chicken breed were tested using chicken donor PGCs from a black skinned silkie chicken breed. Donor PGCs injected into the caspase host embryos which were then raised to sexual maturity and bred were tested.
In more detail, in this embodiment, black skinned Silkie PGCs were mixed with B/B dimerisation drug and injected into Dazl-Caspase host embryos whilst in the egg. The eggs were sealed and the embryos were hatched then crossed to each other when sexual mature.
50% of offspring should be GFP positive if derived from the endogenous GFP+ caspase9 host PGCs.

For assay [8], the system named is PGCs containing the targeted nitroreductase gene. As to the kind of experiment: PGC culture with nitroreductase pro-drug CB1954, total cell number after 10 days. The class given is cell-based, chicken. The procedure:
FIG. 5 500 PGCs (Control, CAG-NTR or Dazl-NTR) were cultured in the presence or absence of the nitroreductase pro-drug CB1954 (n=2 for each concentration of pro-drug). After 10 days the total cell number was counted for each well. N=6 for each data point, from three independent experiments.
PGCs containing the targeted nitroreductase gene were treated with the pro-drug CB1954. PGCs died when exposed to the drug.

This is an account of results in US12279600B2, “Genetically modified sterile avians and method for the reconstitution thereof” (The University Court of the University of Edinburgh, priority 2018, dated 2025).

Molecules are shown by their SMILES. Entries after “also recorded” stand apart in the source; their conditions may differ.

Sequence of FKBP12F36V (P62942 whole entry F37V): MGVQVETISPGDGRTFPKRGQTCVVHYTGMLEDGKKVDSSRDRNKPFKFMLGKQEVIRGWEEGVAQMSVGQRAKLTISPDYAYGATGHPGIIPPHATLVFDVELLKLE

For `CC[C@H](C(=O)N1CCCC[C@H]1C(=O)O[C@H](CCc1ccc(OC)c(OC)c1)c1cccc(OCC(=O)NCCNC(=O)COc2cccc([C@@H](CCc3ccc(OC)c(OC)c3)OC(=O)[C@@H]3CCCCN3C(=O)[C@@H](CC)c3cc(OC)c(OC)c(OC)c3)c2)c1)c1cc(OC)c(OC)c(OC)c1` [AP1903], the “affinity and selectivity for FKBP12F36V” value in assay [1] is “high affinity and selectivity”. Further, in assay [2], the “interaction with endogenous FKBPs” value is “minimal interaction”.

Take `CC[C@H](C(=O)N1CCCC[C@H]1C(=O)O[C@H](CCc1ccc(OC)c(OC)c1)c1cccc(OCC(=O)NCC(CNC(=O)COc2cccc([C@@H](CCc3ccc(OC)c(OC)c3)OC(=O)[C@@H]3CCCCN3C(=O)[C@@H](CC)c3cc(OC)c(OC)c(OC)c3)c2)CN(C)C)c1)c1cc(OC)c(OC)c(OC)c1` [B/B, AP20187]: the “fate of injected Dazl icaspase9 PGCs in embryos” value in assay [3] is “killed; also recorded: ablates”. Moreover, the “endogenous (host) germ cells in the gonad” value in assay [4] is listed as “no endogenous (host) germ cells were detected”. Also, the PGC number result in assay [5] (control untargeted PGCs) is “did not have reduced numbers of PGCs”; in assay [5] (human and chicken caspase9 genes targeted to the dazl locus, FIG. 6) it was “severely reduced PGC numbers”; in assay [5] (iCaspase 9 targeted to the ddx4 locus), “slightly less PGC number”. The “effect on cells with iCaspase9 transgene” value in assay [5] (transgene inserted at the DAZL locus, FIG. 22) was “inhibited/killed”. Further, the “affinity and selectivity for FKBP12F36V” value in assay [1] was “high affinity and selectivity”. Also, the “interaction with endogenous FKBPs” value in assay [2] is recorded as “minimal interaction”. The “GFP expression in the gonads” value in assay [6] (1.0 μl of 0.1 mM injected at day 2.5, incubated 8 days) is recorded as “no visible GFP expression”. The “DDX4 positive or GFP+ germ cells in the gonads” value in assay [6] (cryosections and DDX4 immuno-staining) is reported as “almost no identifiable DDX4 positive or GFP+ cells are present; also recorded: no germ cells”. Moreover, the “skin phenotype of offspring (donor origin)” value in assay [7] is on record as “black skin”.

Consider `NC(=O)c1cc(N2CC2)c([N+](=O)[O-])cc1[N+](=O)[O-]` [CB1954], for which the “cell number versus control cells” value in assay [8] (NTR targeted to the dazl locus, FIG. 5) is “reduction in cell number in comparison to the control cells”. In assay [8] (PGCs containing the targeted nitroreductase gene), the “PGC survival on exposure to pro-drug” value is given as “died”.
